How the values were obtained:
[1] = tested on: ECHORC (Watergrass (Calif.)); experiment: Postemergence weed control under flooded paddy conditions; format: in vivo, Echinochloa oryzoides; settings: postemergence weeds, 3-4 weeks after treatment
Outline: (§1)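 Weeds 3 to 5 cm tall and rice seedlings at the 1.5 to 2.5 leaf stage were flooded, with water held 1.5 to 3 cm above the soil. Compounds in 50/50 v/v aqueous/acetone went into the flood water at about 0.0313 to 0.500 kg/ha. Visual 0-9 ratings versus control were made 3 to 4 weeks later.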

SETVI (Foxtail, Green) = experiment: Preemergence herbicidal evaluation; format: in vivo, Setaria viridis; settings: rated 4-5 weeks after treatment
Outline: (§2)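 Greenhouse preemergence test: seed-soil mix sown on ~1 inch soil; aqueous acetone spray at equivalent of ~0.0156–0.500 kg/ha; greenhouse-held and watered; scored 0–9 visually at 4–5 weeks.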

ORYSAT (Rice, Tebonnet) = experiment: Preemergence herbicidal evaluation; format: in vivo, Oryza sativa, (L.) Tebonnet; settings: rated 4-5 weeks after treatment
Outline: as §2

[2] = tested on: TRZAWR (Wheat, Winter, cv Riband); experiment: Postemergence herbicidal evaluation; format: in vivo, Triticum aestivum; settings: postemergence
Outline: (§3)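 Compound is applied as a foliar spray to seedlings about two weeks old, formulated in equal parts acetone and water with 0.5% TWEEN 20 and delivered at 40 psi to give about 0.0156–0.500 kg per hectare. Injury is rated visually 0–9 after four to five weeks.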

[3] = tested on: CHEAL (Lambsquarters, Common); experiment: Preemergence herbicidal evaluation; format: in vivo, Chenopodium album; settings: rated 4-5 weeks after treatment
Outline: as §2

MOOVA (Monochoria) = experiment: Preemergence weed control under flooded paddy conditions; format: in vivo, Monochoria vaginalis; settings: rated 3-4 weeks after treatment
Outline: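 Using flooded silt loam (water 1.5 to 3 cm deep), seeds sown in the top 0.5 cm were exposed preemergence to compound pipetted into the flood at about 0.0313 to 0.500 kg/ha. Effects were scored 0-9 by eye three to four weeks later.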

[4] = tested on: ECHORC (Watergrass (Calif.)); experiment: as above; format: in vivo, Echinochloa oryzoides; settings: rated 3-4 weeks after treatment
Outline: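 Seeds or propagules sown in top 0.5 cm of silt loam soil, flooded 1.5 to 3 cm above surface throughout. Compound in 50/50 v/v aqueous/acetone pipetted into flood water at about 0.0313 to 0.500 kg/ha. Visual 0-9 rating versus control after three to four weeks in greenhouse.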

ABUTH (Velvetleaf) = experiment: Postemergence herbicidal evaluation; format: in vivo, Abutilon theophrasti; settings: postemergence
Outline: as §3

ECHCG (Barnyardgrass) = experiment: Preemergence herbicidal evaluation; format: in vivo, Echinochloa crus-galli; settings: rated 4-5 weeks after treatment
Outline: as §2

CYPIR (Rice Flatsedge) = experiment: Postemergence weed control under flooded paddy conditions; format: in vivo, Cyperus iria; settings: postemergence weeds, 3-4 weeks after treatment
Outline: as §1

[5] = tested on: TRZAWR (Wheat, Winter, cv Riband); experiment: Preemergence herbicidal evaluation; format: in vivo, Triticum aestivum; settings: rated 4-5 weeks after treatment
Outline: as §2

[6] = tested on: IPOHE (Morningglory, Ivyleaf); experiment: Preemergence herbicidal evaluation; format: in vivo, Ipomoea hederacea; settings: rated 4-5 weeks after treatment
Outline: as §2

CCC1SC(=Nc2cc(N3C(=O)C4=C(CCCC4)C3=O)c(F)cc2Cl)N(C)C1=O (stereo not drawn) [Compound 6, N-{4-chloro-5-[(5-ethyl-3-methyl-4-oxo-2-thiazolidinylidene)amino]-2-fluorophenyl}-1-cyclohexene-1,2-dicarboximide]
Herbicidal rating ECHORC ([1]; rate 0.0313 kg/ha): 0.0 | Herbicidal rating ECHORC ([1]; rate 0.0625 kg/ha): 0.0 | Herbicidal rating ECHORC ([1]; rate 0.1250 kg/ha): 1.0 | Herbicidal rating ECHORC ([1]; rate 0.2500 kg/ha): 3.5 | Herbicidal rating ECHORC ([1]; rate 0.5000 kg/ha): 3.5 | SETVI preemergence herbicidal rating (SETVI (Foxtail, Green); rate 0.1250 kg/ha): 0.0 | SETVI preemergence herbicidal rating (SETVI (Foxtail, Green); rate 0.2500 kg/ha): 2.0 | ORYSAT preemergence herbicidal rating (ORYSAT (Rice, Tebonnet); rate 0.1250 kg/ha): 0.0 | ORYSAT preemergence herbicidal rating (ORYSAT (Rice, Tebonnet); rate 0.2500 kg/ha): 0.0 | ORYSAT preemergence herbicidal rating (ORYSAT (Rice, Tebonnet); rate 0.5000 kg/ha): 0.0 | TRZAWR herbicidal rating ([2]; rate 0.0157 kg/ha): 2.5 | TRZAWR herbicidal rating ([2]; rate 0.0313 kg/ha): 2.5 | TRZAWR herbicidal rating ([2]; rate 0.0625 kg/ha): 3.0 | TRZAWR herbicidal rating ([2]; rate 0.1250 kg/ha): 3.0 | TRZAWR herbicidal rating ([2]; rate 0.2500 kg/ha): 3.5 | TRZAWR herbicidal rating ([2]; rate 0.5000 kg/ha): 3.5 | CHEAL preemergence herbicidal rating ([3]; rate 0.1250 kg/ha): 2.0 | CHEAL preemergence herbicidal rating ([3]; rate 0.2500 kg/ha): 4.0 | CHEAL preemergence herbicidal rating ([3]; rate 0.5000 kg/ha): 9.0 | Herbicidal rating MOOVA (MOOVA (Monochoria); 0.0313 kg/ha): 2.0 | Herbicidal rating MOOVA (MOOVA (Monochoria); 0.0625 kg/ha): 8.0 | Herbicidal rating MOOVA (MOOVA (Monochoria); 0.1250 kg/ha): 8.0 | Herbicidal rating MOOVA (MOOVA (Monochoria); 0.2500 kg/ha): 9.0 | Herbicidal rating MOOVA (MOOVA (Monochoria); 0.5000 kg/ha): 9.0 | Herbicidal rating ECHORC ([4]; 0.0313 kg/ha): 0.0 | Herbicidal rating ECHORC ([4]; 0.0625 kg/ha): 0.0 | Herbicidal rating ECHORC ([4]; 0.1250 kg/ha): 2.0 | Herbicidal rating ECHORC ([4]; 0.2500 kg/ha): 7.0 | Herbicidal rating ECHORC ([4]; 0.5000 kg/ha): 7.0 | ABUTH herbicidal rating (ABUTH (Velvetleaf); rate 0.0157 kg/ha): 7.0 | ABUTH herbicidal rating (ABUTH (Velvetleaf); rate 0.0313 kg/ha): 8.0 | ABUTH herbicidal rating (ABUTH (Velvetleaf); rate 0.0625 kg/ha): 8.0 | ABUTH herbicidal rating (ABUTH (Velvetleaf); rate 0.1250 kg/ha): 9.0 | ABUTH herbicidal rating (ABUTH (Velvetleaf); rate 0.2500 kg/ha): 9.0 | ABUTH herbicidal rating (ABUTH (Velvetleaf); rate 0.5000 kg/ha): 9.0 | ECHCG preemergence herbicidal rating (ECHCG (Barnyardgrass); rate 0.1250 kg/ha): 0.0 | ECHCG preemergence herbicidal rating (ECHCG (Barnyardgrass); rate 0.2500 kg/ha): 0.0 | ECHCG preemergence herbicidal rating (ECHCG (Barnyardgrass); rate 0.5000 kg/ha): 2.0 | Herbicidal rating CYPIR (CYPIR (Rice Flatsedge); rate 0.0313 kg/ha): 0.0 | Herbicidal rating CYPIR (CYPIR (Rice Flatsedge); rate 0.0625 kg/ha): 1.0 | Herbicidal rating CYPIR (CYPIR (Rice Flatsedge); rate 0.1250 kg/ha): 2.0 | Herbicidal rating CYPIR (CYPIR (Rice Flatsedge); rate 0.2500 kg/ha): 3.0 | Herbicidal rating CYPIR (CYPIR (Rice Flatsedge); rate 0.5000 kg/ha): 3.5 | TRZAWR preemergence herbicidal rating ([5]; rate 0.1250 kg/ha): 0.0 | TRZAWR preemergence herbicidal rating ([5]; rate 0.2500 kg/ha): 0.0 | TRZAWR preemergence herbicidal rating ([5]; rate 0.5000 kg/ha): 0.0

CN1C(=O)CS/C1=N/c1cc(-n2c(=O)cc(C(F)(F)F)n(C)c2=O)c(F)cc1Cl [Compound 7]
Herbicidal rating ECHORC ([1]; rate 0.0313 kg/ha): 7.0 | Herbicidal rating ECHORC ([1]; rate 0.0625 kg/ha): 8.5 | Herbicidal rating ECHORC ([1]; rate 0.1250 kg/ha): 9.0 | Herbicidal rating ECHORC ([1]; rate 0.2500 kg/ha): 9.0 | SETVI preemergence herbicidal rating (SETVI (Foxtail, Green); rate 0.0157 kg/ha): 9.0 | SETVI preemergence herbicidal rating (SETVI (Foxtail, Green); rate 0.0313 kg/ha): 9.0 | SETVI preemergence herbicidal rating (SETVI (Foxtail, Green); rate 0.0625 kg/ha): 9.0 | SETVI preemergence herbicidal rating (SETVI (Foxtail, Green); rate 0.1250 kg/ha): 9.0 | SETVI preemergence herbicidal rating (SETVI (Foxtail, Green); rate 0.2500 kg/ha): 9.0 | ORYSAT preemergence herbicidal rating (ORYSAT (Rice, Tebonnet); rate 0.0157 kg/ha): 5.0 | ORYSAT preemergence herbicidal rating (ORYSAT (Rice, Tebonnet); rate 0.0313 kg/ha): 7.5 | ORYSAT preemergence herbicidal rating (ORYSAT (Rice, Tebonnet); rate 0.0625 kg/ha): 8.0 | ORYSAT preemergence herbicidal rating (ORYSAT (Rice, Tebonnet); rate 0.1250 kg/ha): 8.5 | ORYSAT preemergence herbicidal rating (ORYSAT (Rice, Tebonnet); rate 0.2500 kg/ha): 9.0 | TRZAWR herbicidal rating ([2]; rate 0.0157 kg/ha): 4.5 | TRZAWR herbicidal rating ([2]; rate 0.0313 kg/ha): 3.0 | TRZAWR herbicidal rating ([2]; rate 0.0625 kg/ha): 5.0 | TRZAWR herbicidal rating ([2]; rate 0.1250 kg/ha): 6.0 | CHEAL preemergence herbicidal rating ([3]; rate 0.0157 kg/ha): 9.0 | CHEAL preemergence herbicidal rating ([3]; rate 0.0313 kg/ha): 9.0 | CHEAL preemergence herbicidal rating ([3]; rate 0.0625 kg/ha): 9.0 | CHEAL preemergence herbicidal rating ([3]; rate 0.1250 kg/ha): 9.0 | CHEAL preemergence herbicidal rating ([3]; rate 0.2500 kg/ha): 9.0 | Herbicidal rating MOOVA (MOOVA (Monochoria); 0.0313 kg/ha): 9.0 | Herbicidal rating MOOVA (MOOVA (Monochoria); 0.0625 kg/ha): 9.0 | Herbicidal rating MOOVA (MOOVA (Monochoria); 0.1250 kg/ha): 9.0 | Herbicidal rating MOOVA (MOOVA (Monochoria); 0.2500 kg/ha): 9.0 | Herbicidal rating ECHORC ([4]; 0.0313 kg/ha): 8.0 | Herbicidal rating ECHORC ([4]; 0.0625 kg/ha): 9.0 | Herbicidal rating ECHORC ([4]; 0.1250 kg/ha): 9.0 | Herbicidal rating ECHORC ([4]; 0.2500 kg/ha): 9.0 | ABUTH herbicidal rating (ABUTH (Velvetleaf); rate 0.0157 kg/ha): 9.0 | ABUTH herbicidal rating (ABUTH (Velvetleaf); rate 0.0313 kg/ha): 9.0 | ABUTH herbicidal rating (ABUTH (Velvetleaf); rate 0.0625 kg/ha): 9.0 | ABUTH herbicidal rating (ABUTH (Velvetleaf); rate 0.1250 kg/ha): 9.0 | ECHCG preemergence herbicidal rating (ECHCG (Barnyardgrass); rate 0.0157 kg/ha): 5.0 | ECHCG preemergence herbicidal rating (ECHCG (Barnyardgrass); rate 0.0313 kg/ha): 9.0 | ECHCG preemergence herbicidal rating (ECHCG (Barnyardgrass); rate 0.0625 kg/ha): 9.0 | ECHCG preemergence herbicidal rating (ECHCG (Barnyardgrass); rate 0.1250 kg/ha): 9.0 | ECHCG preemergence herbicidal rating (ECHCG (Barnyardgrass); rate 0.2500 kg/ha): 9.0 | IPOHE preemergence herbicidal rating ([6]; rate 0.0313 kg/ha): 4.0 | IPOHE preemergence herbicidal rating ([6]; rate 0.0625 kg/ha): 4.0 | IPOHE preemergence herbicidal rating ([6]; rate 0.1250 kg/ha): 9.0 | IPOHE preemergence herbicidal rating ([6]; rate 0.2500 kg/ha): 9.0 | Herbicidal rating CYPIR (CYPIR (Rice Flatsedge); rate 0.0313 kg/ha): 8.5 | Herbicidal rating CYPIR (CYPIR (Rice Flatsedge); rate 0.0625 kg/ha): 9.0 | Herbicidal rating CYPIR (CYPIR (Rice Flatsedge); rate 0.1250 kg/ha): 9.0 | Herbicidal rating CYPIR (CYPIR (Rice Flatsedge); rate 0.2500 kg/ha): 9.0 | TRZAWR preemergence herbicidal rating ([5]; rate 0.0157 kg/ha): 5.0 | TRZAWR preemergence herbicidal rating ([5]; rate 0.0313 kg/ha): 6.5 | TRZAWR preemergence herbicidal rating ([5]; rate 0.0625 kg/ha): 7.5 | TRZAWR preemergence herbicidal rating ([5]; rate 0.1250 kg/ha): 8.5 | TRZAWR preemergence herbicidal rating ([5]; rate 0.2500 kg/ha): 8.5

From patent US20020137929A1, “1 - (3-heterocyclylphenyl) isothiourea, -isourea, -guanidine and -amidine herbicidal agents” (Intellectual Property Department, BASF Aktiengesellschaft, priority 1998, published 2002)
